Laboratory results reported in article PMC7062083, “Metabolite identification, tissue distribution, excretion and preclinical pharmacokinetic studies of ET-26-HCl, a new analogue of etomidate” (Royal Society Open Science, 2020).
“Also recorded” adds a separate entry of the source.

Legend:
[1] = Stability in beagle plasma (LC-MS/MS); type: in vitro ADME
Experimental: (§1) Concentrations of ET-26-HCl and ET-26-acid in biological samples were determined by liquid chromatography–tandem mass spectrometry (LC–MS/MS) after deproteinization with methanol. The bioanalytical method for simultaneous quantification of ET-26-HCl and ET-26-acid in the different matrix was fully validated according to FDA guidelines (electronic supplementary material, figure S1 and tables S1 and S2) in our previous study. Briefly, a 100 µl sample (plasma, tissue homogenate, bile, urine and faeces suspension) were spiked with 20 µl of IS solution and vortexed for 30 s. The mixture was then processed for protein precipitation with 300 µl methanol, followed by centrifugation at 12 000 r.p.m. for 5 min. Supernatant was collected and analysed by LC–MS/MS system.

[2] = Pharmacokinetics in beagle dogs after intravenous administration; type: in vivo; conditions: beagle dogs after i.v. ET-26-HCl
Experimental: as §1
The LC–MS/MS was performed as described previously. Briefly, ET-26-HCl, ET-26-acid and GBP were separated using a CAPCELL PAK C18 column (50 × 2.00 mm, 5.00 µm) as well as a Security Guard Cartridge (C18, 4 mm × 3.00 mm i.d., Phenomenex). The mobile phase consisting of 0.3% formic acid water (A), and methanol (B) was pumped at a flow rate of 0.6 ml min^−1. The gradient elution was achieved according to the following protocol: 0 min to about 0.50 min, A/B (41/9, v/v); 0.51 min to about 1.5 min, A/B (1/9, v/v); and 1.51 min to about 2.00 min, A/B ([…], v/v). Mass spectrometry was conducted on an API 3000 mass spectrometer (Sciex, Framingham, MA, USA) equipped with an electrospray ionization (ESI) source operating in positive mode. The MS/MS system was in the multiple reaction monitoring (MRM) mode, using the m/z transitions of 275.6/170.9 for ET-26-HCl, 217.7/113.1 for ET-26-acid and 172.5/154.3 for GBP (IS), respectively. The API 3000 mass parameters were set according to the following protocol: curtain gas, 6 psi; collision gas, 8 psi; nebulizer, 4 psi; ion spray voltage, 3000 V and ion source temperature, 450°C. The autosampler was conditioned at 4°C, and the injection volume was 5 µl. The linear ranges of this analytical method for ET-26-HCl and for ET-26-acid from all biological samples are shown in electronic supplementary material, table S3.
Beagle dogs, weighing 9–11 kg, were purchased from Sichuan Industrial of Antibiotics, China National Pharmaceutical Group Corporation (Chengdu, China). A 3 × 3 crossover experimental design with 24 beagles (equal number of male and female dogs) randomly divided into six groups was conducted. Beagle dogs in the six groups received three doses of ET-26-HCl: 1.045 mg kg^−1, 2.090 mg kg^−1 and 4.180 mg kg^−1 as low (L), medium (M) and high (H) dose. Blood samples (2 ml) were collected from the elbow vein in 4 ml heparinized tubes before dosing, and at 1, 3, 5, 10, 20, 30, 120 and 180 min post-dosing. All blood samples were centrifuged at 8000 r.p.m. for 10 min and plasma collected and stored at −80°C until analysis.
All calculations were performed on Microsoft Excel 2016 (Microsoft Co., USA). The Drug and Statistics 3.2.7 (DAS 3.2.7) software package (Mathematical Pharmacology Professional Committee of China, China) was used to acquire the main pharmacokinetic parameters of ET-26-HCl. All data were shown as mean ± standard deviation (s.d.). Statistical significances were calculated by one-way analysis of variance (ANOVA).

[3] = rats, i.v. ET-26-HCl; cited from earlier work
[4] = Excretion (urine, faeces, bile) in Sprague Dawley rats; type: in vivo
Experimental: as §1
SD rats (4 male and 4 female) received 4.2 mg kg^−1 of ET-26-HCl intravenously and were housed in metabolic cages. Urine and faeces from the treated rats were collected between 0–6, 6–12, 12–24, 24–30, 30–36 and 36–48 h post-dosing. Urine volume and faeces weight were measured and recorded.
Bile fistulas of SD rats (four male and four female) were cannulated with polyethylene tube (Instech Laboratories, Inc., USA) and bile was collected at the following time-points: 0–3, 3–6, 6–9, 9–12 and 12–24 h post-dosing. The volume of the collected bile was measured and stored at −80°C until analysis.

[5] = Tissue distribution in Sprague Dawley rats; type: in vivo; conditions: i.v. 4.2 mg kg^−1 ET-26-HCl
Experimental: as §1
Sprague Dawley (SD) rats (200–240 g) were provided by the Animal Facility at Sichuan University (Chengdu, China). All rats received a single 4.2 mg kg^−1 dose of ET-26-HCl intravenously. Rats were sacrificed and tissues, including heart, spleen, lung, intestine, colon, kidney, brain, fat, stomach, liver, muscle, testis and ovary were collected at 0, 1, 3, 6 and 10 h post-dosing (six rats/time-point). Tissue samples were rinsed thrice in ice cold saline, and blotted dry with filter papers. Weighed amount of tissues were homogenized in normal saline (thrice the tissue weight, w/v) and homogenates were stored at −80°C until analysis.

[6] = Identification of major metabolites in liver microsomes (UPLC-Q-TOF-MS); type: in vitro ADME, mouse, rat, beagle dog, monkey and human; conditions: 10 µM ET-26-HCl, 1 mg ml^−1 liver microsomes, NADPH, 1 h
Experimental: The major metabolites of ET-26-HCl in liver microsomes from mouse, rat, beagle dog, monkey and human were determined by the UPLC-Q-TOF-MS system.
Reaction mixture containing 10 µM ET-26-HCl, […] MgCl2 and 1 mg ml^−1 liver microsomes in Tris-HCl phosphate buffer (pH 7.4) was pre-incubated for 6 min at 37°C, followed by the addition of NADPH. After incubation for 1 h, methanol was added to stop the reaction. Samples were centrifuged at 11 000 r.p.m. for 5 min; supernatants were collected and air dried at 40°C. Residues were dissolved in 100 µl acetonitrile/water (1:1, v/v) and analysed by the UPLC-Q-TOF-MS.
The UPLC-Q-OF-MS system was equipped with a Waters Synapt G2-Si quadrupole time-of-flight mass spectrometer (Q-TOF-MS), an ESI source and an ACQUITY UPLC H-CLASS liquid chromatography system. The chromatographic separations were achieved on an ACQUITY UPLC BEH C18 column (2.1 × 100 mm, i.d. 1.7 µm, Waters, USA) kept at 45°C and a flow rate of 0.4 ml min^−1. The mobile phase consisted of 5 mM ammonium acetate with 0.1% formic acid (A) and acetonitrile with 0.1% formic acid (B). The optimized gradient elution programme followed was 0 min to 2.1 min, A/B (19/1, v/v); 2.1 min to 7.3 min, A/B (1/4, v/v); 7.3 min to 8.0 min, A/B (1/9, v/v); and 8.0 min to 10 min, A/B (19/1, v/v). The injection volume was 5 µl. The mass experiment was operated in positive ion modes under the following parameters: turbo spray temperature, 120°C; ion spray voltage, 3.0 kV. Nitrogen was used as the nebulizer and the auxiliary gas; meanwhile, the nebulizer gas was set to 650 l h^−1 and kept at 350°C. The collision energy was set at 5–10 V and the collision energy spread was 4–6 V. TOF-MS was scanned with the mass range of m/z 50–600 with 200 ms accumulation time. A 400 ng ml^−1 leu-enkephalin (m/z 556.2771) was selected as an external standard for mass–charge ratio correction at a flow rate of 5 µl min^−1.

[7] = i.v. ET-26-HCl 4.2 mg kg^−1, collected to 48 h

Structure (SMILES)	Measured concentration (Mean ± SD) ([1]; 4◦C for 3 h, nominal 38.24 ng/mL) [ng/mL]	Measured concentration (Mean ± SD) ([1]; 4◦C for 3 h, nominal 3186 ng/mL) [ng/mL]	Measured concentration (Mean ± SD) ([1]; Freeze and Thaw Cycle (3), nominal 38.24 ng/mL) [ng/mL]	Measured concentration (Mean ± SD) ([1]; Freeze and Thaw Cycle (3), nominal 3186 ng/mL) [ng/mL]	Measured concentration (Mean ± SD) ([1]; Room temperature 3 h, nominal 38.24 ng/mL) [ng/mL]	Measured concentration (Mean ± SD) ([1]; Room temperature 3 h, nominal 3186 ng/mL) [ng/mL]	Measured concentration (Mean ± SD) ([1]; –80 ◦C for 30 days, nominal 38.24 ng/mL) [ng/mL]	Measured concentration (Mean ± SD) ([1]; –80 ◦C for 30 days, nominal 3186 ng/mL) [ng/mL]	plasma concentration of ET-26-acid (in words) [2]	plasma exposure of metabolite relative to parent (in words) [3]	accumulative excretion through bile ([4]; i.v. ET-26-HCl 4.2 mg kg^−1, bile collected to 24 h) [%]	accumulative excretion through faeces [4, 7] [%]	accumulative excretion through urine [4, 7] [%]	time for clearance from tissues [5]	tissues with the highest concentration [5]	source (liver microsomes) in which detected [6]
C[C@H](c1ccccc1)n1cncc1C(=O)O [ET-26-acid]	39.92 ± 2.904	2890 ± 174.8	36.23 ± 2.568	2770 ± 157.7	38.29 ± 4.088	2890 ± 117.6	35.84 ± 1.899	3049 ± 391.4	almost non-detectable; also recorded: almost undetectable	higher plasma exposure than the parent drug	0.027	0.080	12.49	around 3 h	plasma and liver	
C[C@H](c1ccccc1)n1cncc1C(=O)OCCO [M2]																every liver microsomal preparation; also recorded: human, monkey, dog, rat, mouse
